From paper PMC6508961, “A high-throughput screen of pharmacologically active compounds for inhibitors of UHRF1 reveals epigenetic activity of anthracycline derivative chemotherapeutic drugs” (Oncotarget, 2019)
Where two headings read alike, the source gives them in different places.

Tests used:
[1] = target: T1, UHRF1_SRA binding to hemimethylated DNA (Homo sapiens, UniProt Q96T88); experiment: TR-FRET assay, dose-response inhibition of UHRF1_SRA binding to FAM-labeled hemimethylated DNA; conditions: for Dose-response validation of screen hits (result in words): dilution series 50 μM to 0.64 nM, quadruplicate
T1 construct: made in house; host or cells: E. coli BL-21 Gold
T1 sequence (Q96T88 419-582 limits assumed): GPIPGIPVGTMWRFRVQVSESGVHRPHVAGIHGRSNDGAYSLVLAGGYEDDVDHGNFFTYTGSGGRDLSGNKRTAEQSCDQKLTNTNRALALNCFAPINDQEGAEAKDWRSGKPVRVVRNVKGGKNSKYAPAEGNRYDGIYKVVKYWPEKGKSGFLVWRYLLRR
Experimental: TR-FRET assays were performed in an optimized TR-FRET buffer (4% glycerol, 1 mM MgCl2, 0.5 mM EDTA, 0.5 mM DTT, 125 mM NaCl, 10 mM Tris HCl, and 0.2% Tween-20) in non-binding, flat-bottom 384-well plates (Corning). UHRF1_SRA protein was added to a final concentration of 125 nM and terbium-labeled antibody was added at 5 nM (Life Technologies) in a final reaction volume of 20 μL. For initial binding experiments examining the affinity of UHRF1_SRA to DNA, FAM-labeled hemimethylated or unmethylated double stranded oligonucleotides were added in a dilution series, and the reaction mixture was incubated at 4°C with shaking for 1 hour. TR-FRET measurements were made on a SpectraMax M5 (Molecular Devices, Sunnyvale, CA, USA), using an excitation wavelength of 332 nm and emissions read at 485 nm and 515 nm with a 50 μsec delay and 400 μsec integration. The ratio of the 515 nm emission (arising from FRET) to the 485 nm emission provides a normalized TR-FRET signal that represents the extent of binding. For inhibitor curves, FAM-labeled hemimethylated oligonucleotide was added to a final concentration of 100 nM, and unlabeled oligonucleotide was added in a dilution series. A Z’ factor was calculated for 32 replicates of UHRF1_SRA protein binding FAM-labeled hemimethylated DNA with or without the addition of an excess (5 μM) of unlabeled hemimethylated inhibitor (“cold” perfect competitive inhibitor positive control for inhibition):
Each hit compound was tested using the TR-FRET assay above in quadruplicate in a dilution series (50 μM to 0.64 nM). Curve fitting was performed using the open source software R version 2.15.2 with the ggplot2 package.

[2] = target: T1, UHRF1_SRA binding to hemimethylated DNA; experiment: LOPAC primary screen with the TR-FRET assay; conditions: 20 μM; hit = Z-score < −4.08, Bonferroni adjusted p-value < 0.05
Experimental: The above TR-FRET assay was employed to screen the Library of Pharmacologically Active Compounds (LOPAC) (Sigma-Aldrich) using optimized conditions. 200 uM stock solutions of compounds dissolved in dimethyl sulfoxide (DMSO) were added to a final concentration of 20 μM across four 384-well plates containing 20 μL of TR-FRET buffer with 125 nM UHRF1_SRA protein, 100 nM double stranded FAM-labeled hemimethylated oligos, and 5 nM terbium labeled anti-HIS antibody. Controls on each plate include: 1) a DMSO-only vehicle control, 2) 5μM of unlabeled, methylated oligonucleotide as a positive inhibition control, 3) unmethylated, FAM-labeled oligonucleotide as a negative control, and 4) no UHRF1_SRA protein negative control. Each plate was incubated at 4° C for one hour and read using a Safire^2 (Tecan Group, Männedorf, Switzerland) with excitation at 332 nm and emissions read at 485 nm and 515 nm. A Z score of the TR-FRET signal (ratio of 515 nm signal to the 485 nm signal) was calculated for each compound using the following formula: […]
where x is the TR-FRET signal for each compound, x¯ is the median TR-FRET signal of all compounds on the plate, and σ is the standard deviation of all compound TR-FRET signals across the plate. Hits were defined as those compounds with Z-score < −4.08 corresponding to a Bonferroni adjusted p-value of less than 0.05.

[3] = tested on: DU-145 cells; experiment: Growth curve assay (IncuCyte); type: cell-based; conditions: mitoxantrone 1.25 nM or doxorubicin 5 nM or 10 nM with 50 nM decitabine
Experimental: The next day, cells were treated with a single dose of DMSO (vehicle control), decitabine alone (50 nM), mitoxantrone alone (1.25 nM), doxorubicin alone (5 nM or 10 nM), or decitabine in combination with mitoxantrone (1.25 nM) or doxorubicin (5 nM or 10 nM). Cell growth was measured using IncuCyte™ technology (Essen Bioscience, Ann Arbor, MI, USA) by imaging 16 fields per well at 6 hour intervals. The cell surface area and percent confluence were calculated using IncuCyte software, and growth curves were constructed in R using the ggplot2 package.

[4] = tested on: C42B prostate cancer cell line; experiment: Cellular growth/proliferation assay; type: cell-based; conditions: mitoxantrone 2.5 nM or doxorubicin 5 nM with decitabine 50 nM
Experimental: (§1) www.oncotarget.com Oncotarget, Supplementary Materials […]
(§2) derivative chemotherapeutic drugs
(§3) Supplementary Figure 1: Cellular growth/proliferation assays of C42B, PC-3 and LNCaP prostate cancer cell lines treated with mitoxantrone (2.5 nM) or doxorubicin (5 nM) in combination with decitabine (50 nM) or vehicle control (DMSO), decitabine alone, or DMSO alone.
(§4) (1 picture or pasted object on this page, not shown here)

[5] = tested on: LNCaP prostate cancer cell line; experiment: Cellular growth/proliferation assay; type: cell-based; conditions: mitoxantrone 2.5 nM or doxorubicin 5 nM with decitabine 50 nM
Experimental: as §1, §2, §3, §4

[6] = tested on: PC-3 prostate cancer cell line; experiment: Cellular growth/proliferation assay; type: cell-based; conditions: mitoxantrone 2.5 nM or doxorubicin 5 nM with decitabine 50 nM
Experimental: as §1, §2, §3, §4

[7] = tested on: DU-145 cells; experiment: Clonogenic survival assay; conditions: 10 days; for Clonogenic survival, drug alone: decitabine 50 nM, mitoxantrone 2.5 nM, doxorubicin 5 nM; for Clonogenic survival, in combination with decitabine: mitoxantrone 2.5 nM or doxorubicin 5 nM with 50 nM decitabine
[8] = 125 nM UHRF1_SRA, 100 nM FAM-labeled hemimethylated oligo, read-out: IC50 of inhibition of UHRF1_SRA binding to labeled hemimethylated DNA

SMILES | Dose-response validation of screen hits (result in words) [1] | Inhibition of UHRF1_SRA binding to hemimethylated DNA in pilot screen [2] | IC50 [1, 8] [nM] | other results
N=C1Sc2ccccc2C2=NCCCN12 [PD404,182] | failed to show any appreciable inhibition | significantly inhibited | – | –
COc1cccc2c1C(=O)c1c(O)c3c(c(O)c1C2=O)C[C@@](O)(C(C)=O)C[C@@H]3O[C@H]1C[C@H](N)[C@H](O)[C@H](C)O1 [Daunorubicin, daunorubicin] | – | – | 313 | –
CN(N=O)c1ccc(O)c(O)c1 [methyl-3,4-dephostatin] | failed to show any appreciable inhibition | significantly inhibited | – | –
Nc1c(S(=O)(=O)O)cc(Nc2ccc(Nc3nc(Cl)nc(Nc4cccc(S(=O)(=O)O)c4)n3)c(S(=O)(=O)O)c2)c2c1C(=O)c1ccccc1C2=O [Reactive Blue 2] | – | significantly inhibited | – | –
Cc1ccc(C(=O)Nc2ccc(S(=O)(=O)O)c3cc(S(=O)(=O)O)cc(S(=O)(=O)O)c23)cc1NC(=O)c1cccc(NC(=O)Nc2cccc(C(=O)Nc3cc(C(=O)Nc4ccc(S(=O)(=O)O)c5cc(S(=O)(=O)O)cc(S(=O)(=O)O)c45)ccc3C)c2)c1 [Suramin] | inhibited binding with a sigmoidal dose response | significantly inhibited | 2250 | –
O=C1c2c(O)ccc(O)c2C(=O)c2c(NCCNCCO)ccc(NCCNCCO)c21 [mitoxantrone] | inhibited binding with a sigmoidal dose response | significantly inhibited | 134 | Growth curve analysis, in combination with decitabine [3]: synergy; Growth/proliferation, combination with decitabine [4]: enhanced inhibition of; Growth/proliferation, combination with decitabine [5]: enhanced inhibition of; Growth/proliferation, combination with decitabine [6]: enhanced inhibition of; Clonogenic survival, drug alone [7]: some reduction in clonogenic survival; Clonogenic survival, in combination with decitabine [7]: significantly enhanced reduction in clonogenic survival
CC(=O)[C@]1(O)Cc2c(O)c3c(c(O)c2[C@@H](O[C@H]2C[C@H](N)[C@H](O)[C@H](C)O2)C1)C(=O)c1ccccc1C3=O [idarubicin] | inhibited binding with a sigmoidal dose response | significantly inhibited | 593 | –
Nc1ncn([C@H]2C[C@H](O)[C@@H](CO)O2)c(=O)n1 [decitabine] | – | – | – | Clonogenic survival, drug alone [7]: some reduction in clonogenic survival
O=C(Nc1cc(C(=O)Nc2ccc(S(=O)(=O)O)cc2S(=O)(=O)O)cc(C(=O)Nc2ccc(S(=O)(=O)O)cc2S(=O)(=O)O)c1)Nc1cc(C(=O)Nc2ccc(S(=O)(=O)O)cc2S(=O)(=O)O)cc(C(=O)Nc2ccc(S(=O)(=O)O)cc2S(=O)(=O)O)c1 [NF449] | inhibited binding with a sigmoidal dose response | significantly inhibited | 393 | –
COc1cccc2c1C(=O)c1c(O)c3c(c(O)c1C2=O)C[C@@](O)(C(=O)CO)C[C@@H]3O[C@H]1C[C@H](N)[C@H](O)[C@H](C)O1 [doxorubicin] | – | – | – | IC50 [1]: 131 nM; Growth curve analysis, in combination with decitabine [3]: synergy; Growth/proliferation, combination with decitabine [4]: showed enhanced; Growth/proliferation, combination with decitabine [5]: did not show enhanced growth inhibition; Growth/proliferation, combination with decitabine [6]: showed enhanced; Clonogenic survival, drug alone [7]: some reduction in clonogenic survival; Clonogenic survival, in combination with decitabine [7]: significantly enhanced reduction in clonogenic survival
NC(Cc1cc(O)c(O)cc1O)C(=O)O (racemic) [6-OH-DL-DOPA] | failed to show any appreciable inhibition | significantly inhibited | – | –
N#CC(C#N)=C(N)/C(C#N)=C/c1cc(O)c(O)c(O)c1 [tyrphostin 51] | failed to show any appreciable inhibition | significantly inhibited | – | –
NCCNc1ccc(NCCN)c2c1C(=O)c1ccncc1C2=O [Pixantrone, pixantrone] | – | – | 557 | –
S=C=Nc1ccc2oc(C3=NCCN3)cc2c1 [BU99006] | failed to show any appreciable inhibition | significantly inhibited | – | –
CN(N=O)c1cc(O)ccc1O [dephostatin] | failed to show any appreciable inhibition | significantly inhibited | – | –
O=C(O)C1=CC(=C(c2ccc(O)c(C(=O)O)c2)c2ccc(O)c(C(=O)O)c2)C=CC1=O [aurintricarboxylic acid] | inhibited binding with a sigmoidal dose response | significantly inhibited | 21 | –
Cc1nc(N=Nc2cc(S(=O)(=O)O)c3cc([N+](=O)[O-])cc(S(=O)(=O)O)c3c2)c(COP(=O)(O)O)c(C=O)c1O [PPNDS] | inhibited binding with a sigmoidal dose response | significantly inhibited | 770 | –
O=C(Nc1cccc(C(=O)Nc2ccc(S(=O)(=O)O)c3cc(S(=O)(=O)O)cc(S(=O)(=O)O)c23)c1)Nc1cccc(C(=O)Nc2ccc(S(=O)(=O)O)c3cc(S(=O)(=O)O)cc(S(=O)(=O)O)c23)c1 [NF023] | inhibited binding with a sigmoidal dose response | significantly inhibited | 840 | –
